ChEMBL document CHEMBL1201862, “PubChem BioAssay data set” (2004)
The source made the active and inactive calls.

How the values were obtained:
[1] = luciferase reporter signal suppression in cells – H4 neuroglioma cells, luminescence, dose response (AID 1990); assay type: functional, cell-based
[2] = target: T1, Type-1 angiotensin II receptor (Homo sapiens, UniProt P30556); experiment: antagonism of angiotensin II type 1 receptor – cell-based, uHTS hits, selectivity assay for APJ receptor antagonist project, dose response (AID 463214); assay type: functional;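 further: antagonist potency against angiotensin II stimulated AT1 response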
T1 sequence (P30556 whole entry): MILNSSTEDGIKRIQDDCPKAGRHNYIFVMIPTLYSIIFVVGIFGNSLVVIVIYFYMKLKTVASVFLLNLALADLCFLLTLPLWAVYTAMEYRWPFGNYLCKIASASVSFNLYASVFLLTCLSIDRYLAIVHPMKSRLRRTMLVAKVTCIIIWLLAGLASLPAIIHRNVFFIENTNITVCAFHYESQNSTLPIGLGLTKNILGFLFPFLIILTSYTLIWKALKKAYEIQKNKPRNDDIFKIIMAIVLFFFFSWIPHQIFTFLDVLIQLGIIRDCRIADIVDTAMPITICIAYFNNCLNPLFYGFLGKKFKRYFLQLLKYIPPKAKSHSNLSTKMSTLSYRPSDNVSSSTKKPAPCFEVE

[3] = Luminescence Cell-Based Dose Response HTS to Identify Inhibitors of 5'UTR Stem-Loop Driven Prion Protein mRNA Translation in H4 Neuroglioblastoma Cells. [Related pubchem assays: 1827 (Project Summary), 1813 (Primary HTS)]; assay type: functional
[4] = alpha-synuclein stem-loop luciferase translation blockers – H4 neuroglioma cells, luminescence, confirmation (AID 1988); assay type: functional, cell-based
[5] = target: Beta-galactosidase (Escherichia coli, UniProt Q8VNN2); experiment: PubChem AID 485352; assay type: functional
Sequence of Beta-galactosidase (Q8VNN2 whole entry): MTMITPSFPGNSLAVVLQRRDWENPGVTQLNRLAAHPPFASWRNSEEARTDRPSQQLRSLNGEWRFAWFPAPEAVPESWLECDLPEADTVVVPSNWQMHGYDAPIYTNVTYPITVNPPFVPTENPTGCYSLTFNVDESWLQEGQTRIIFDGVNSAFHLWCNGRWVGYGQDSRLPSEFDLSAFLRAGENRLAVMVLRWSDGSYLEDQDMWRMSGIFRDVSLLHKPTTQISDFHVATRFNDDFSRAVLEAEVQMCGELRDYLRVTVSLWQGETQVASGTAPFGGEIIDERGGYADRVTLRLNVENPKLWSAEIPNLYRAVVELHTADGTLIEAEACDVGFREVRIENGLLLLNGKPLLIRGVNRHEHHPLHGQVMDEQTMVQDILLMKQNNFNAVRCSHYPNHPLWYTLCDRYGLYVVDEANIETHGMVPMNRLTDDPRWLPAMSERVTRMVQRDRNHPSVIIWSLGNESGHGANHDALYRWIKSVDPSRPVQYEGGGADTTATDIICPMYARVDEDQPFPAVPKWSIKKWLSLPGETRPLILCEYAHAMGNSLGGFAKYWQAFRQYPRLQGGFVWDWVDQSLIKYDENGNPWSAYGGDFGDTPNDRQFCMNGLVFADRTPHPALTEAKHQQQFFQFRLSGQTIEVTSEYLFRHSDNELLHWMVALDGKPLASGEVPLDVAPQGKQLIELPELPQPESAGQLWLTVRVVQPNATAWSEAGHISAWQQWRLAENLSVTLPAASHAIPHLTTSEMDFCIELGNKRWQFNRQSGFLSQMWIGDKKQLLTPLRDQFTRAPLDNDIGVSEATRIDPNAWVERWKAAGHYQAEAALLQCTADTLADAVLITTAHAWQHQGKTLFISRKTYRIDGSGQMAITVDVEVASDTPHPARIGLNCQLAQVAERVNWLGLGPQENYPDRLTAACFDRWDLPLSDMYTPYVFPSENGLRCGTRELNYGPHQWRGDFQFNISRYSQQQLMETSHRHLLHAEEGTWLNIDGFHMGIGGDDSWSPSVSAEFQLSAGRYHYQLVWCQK

[6] = target: T2, Aminopeptidase N (Plasmodium falciparum FcB1/Columbia, UniProt O96935); experiment: malaria alanyl aminopeptidase activity blockers – biochemical, fluorogenic H-Leu-NHMec substrate, 1536-well (AID 1445); set-up: species or system Plasmodium falciparum 3D7, 3D7
T2 sequence (O96935 whole entry): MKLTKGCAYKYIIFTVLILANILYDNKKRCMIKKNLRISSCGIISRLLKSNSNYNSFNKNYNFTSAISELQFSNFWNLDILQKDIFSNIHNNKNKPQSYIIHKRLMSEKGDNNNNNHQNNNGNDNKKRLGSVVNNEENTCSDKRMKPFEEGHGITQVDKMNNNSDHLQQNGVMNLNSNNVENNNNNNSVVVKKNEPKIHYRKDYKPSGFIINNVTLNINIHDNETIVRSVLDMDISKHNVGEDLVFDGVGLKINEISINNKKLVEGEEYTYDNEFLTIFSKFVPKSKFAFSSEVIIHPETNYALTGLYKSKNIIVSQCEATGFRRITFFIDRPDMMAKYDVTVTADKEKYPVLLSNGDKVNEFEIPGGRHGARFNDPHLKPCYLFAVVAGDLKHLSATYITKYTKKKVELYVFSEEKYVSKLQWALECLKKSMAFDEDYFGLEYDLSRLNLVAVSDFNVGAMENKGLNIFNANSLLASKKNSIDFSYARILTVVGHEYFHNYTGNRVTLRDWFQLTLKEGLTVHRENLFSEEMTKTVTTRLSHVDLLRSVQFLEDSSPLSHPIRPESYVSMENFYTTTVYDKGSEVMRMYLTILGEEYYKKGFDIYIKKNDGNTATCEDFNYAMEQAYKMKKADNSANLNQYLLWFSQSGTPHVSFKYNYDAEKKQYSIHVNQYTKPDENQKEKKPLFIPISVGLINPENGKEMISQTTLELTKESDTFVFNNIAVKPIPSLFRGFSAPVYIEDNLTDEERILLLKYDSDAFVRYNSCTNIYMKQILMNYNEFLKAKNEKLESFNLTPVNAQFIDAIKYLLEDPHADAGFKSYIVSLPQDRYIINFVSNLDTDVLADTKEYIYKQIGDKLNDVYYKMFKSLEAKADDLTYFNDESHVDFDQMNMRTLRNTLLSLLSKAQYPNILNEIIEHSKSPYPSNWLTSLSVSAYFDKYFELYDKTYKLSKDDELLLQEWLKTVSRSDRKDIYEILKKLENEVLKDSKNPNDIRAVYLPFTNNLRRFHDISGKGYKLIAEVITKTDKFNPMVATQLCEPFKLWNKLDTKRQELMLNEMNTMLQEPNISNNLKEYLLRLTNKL

[7] = test system: HEK293; experiment: EBV LMP1 TES2 canonical NF-kB signalling blockers – cell-based, HEK293, luciferase, cherry-pick, dose response (AID 588343); assay type: functional; conditions: Homo sapiens
[8] = blockers of HIV-1 ZM109 envelope-driven cell-cell fusion – HeLa effector, CEM target cells, luciferase, cherry-pick, dose response (AID 652058); assay type: functional, cell-based;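 further: luciferase signal from HIV-1 Env mediated cell-cell fusion of effector and target cells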
[9] = off-target signal loss in HeLa-CEM21 co-culture – HeLa F-luc CTL cells, cherry-picked, counter-screen for HIV-1 Env fusion inhibitor project, dose response (AID 652040); assay type: functional, cell-based;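 further: potency for signal decrease marking cytotoxic or nonspecific inhibition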
[10] = blockers of HIV-1 envelope-mediated cell-cell fusion – cherry-pick, dose response (AID 652057); assay type: functional, cell-based
[11] = HIV-1 AD8 envelope cell-cell fusion blockers – cherry-pick, dose response (AID 652062); assay type: functional, cell-based;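 further: luciferase signal from cell-cell fusion driven by HIV-1 clade B AD8 Env; potency is for inhibitors of fusion seen as a drop in luminescence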
[12] = reduction of Shn3 3'UTR-driven luciferase in osteoblasts – cell-based, Clone20 osteoblasts, firefly luciferase, cherry-picked, dose response (AID 624132); assay type: functional;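 further: firefly luciferase luminescence from reporter carrying the Shn3 3'UTR in osteoblasts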
[13] = loss of viability in HepG2 cells – cell-based, CellTiter-Glo, cherry-picked, cytotoxicity control for Shn3 inhibitor project, dose response (AID 624134); assay type: functional
[14] = non-specific 3'UTR reporter inhibition in Clone20-Shn3RL – cell-based, Renilla luciferase, cherry-picked, counter-screen for Shn3 inhibitor project, dose response (AID 624133); assay type: functional
[15] = target: Paired box protein Pax-8 (Homo sapiens, UniProt Q06710); experiment: PAX8 transcriptional activity inhibition in RMG-I – RMG-I cells, luciferase, cherry-pick, dose response (AID 687027); assay type: functional, cell-based;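 further: luciferase reporter driven by Pax8 target thyroperoxidase promoter measured by SteadyGlo luminescence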
Sequence of Paired box protein Pax-8 (Q06710 whole entry): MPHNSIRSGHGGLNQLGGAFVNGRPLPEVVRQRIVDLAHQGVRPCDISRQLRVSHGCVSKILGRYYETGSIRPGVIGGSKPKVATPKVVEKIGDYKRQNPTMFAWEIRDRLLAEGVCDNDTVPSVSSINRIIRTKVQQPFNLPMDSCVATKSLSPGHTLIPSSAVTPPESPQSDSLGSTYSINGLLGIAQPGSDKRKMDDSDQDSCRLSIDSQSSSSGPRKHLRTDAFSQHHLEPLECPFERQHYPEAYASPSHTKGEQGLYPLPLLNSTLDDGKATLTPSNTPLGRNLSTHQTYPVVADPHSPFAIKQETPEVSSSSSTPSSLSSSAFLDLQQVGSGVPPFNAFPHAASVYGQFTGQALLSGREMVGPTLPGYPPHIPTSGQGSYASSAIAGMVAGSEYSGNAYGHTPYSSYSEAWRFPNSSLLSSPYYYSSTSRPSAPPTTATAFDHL

[16] = target: T3, Polyadenylate-binding protein 1 (Homo sapiens, UniProt P11940); experiment: MLLE binding blockers, Cy5 peptide tracer – biochemical, fluorescence polarization, Cy5-PAM2 peptide, secondary, miRNA deadenylation inhibitor project, dose response (AID 602260); assay type: functional; conditions: read-out: IC50_Mean
T3 sequence (P11940 whole entry, the tested form may be a part): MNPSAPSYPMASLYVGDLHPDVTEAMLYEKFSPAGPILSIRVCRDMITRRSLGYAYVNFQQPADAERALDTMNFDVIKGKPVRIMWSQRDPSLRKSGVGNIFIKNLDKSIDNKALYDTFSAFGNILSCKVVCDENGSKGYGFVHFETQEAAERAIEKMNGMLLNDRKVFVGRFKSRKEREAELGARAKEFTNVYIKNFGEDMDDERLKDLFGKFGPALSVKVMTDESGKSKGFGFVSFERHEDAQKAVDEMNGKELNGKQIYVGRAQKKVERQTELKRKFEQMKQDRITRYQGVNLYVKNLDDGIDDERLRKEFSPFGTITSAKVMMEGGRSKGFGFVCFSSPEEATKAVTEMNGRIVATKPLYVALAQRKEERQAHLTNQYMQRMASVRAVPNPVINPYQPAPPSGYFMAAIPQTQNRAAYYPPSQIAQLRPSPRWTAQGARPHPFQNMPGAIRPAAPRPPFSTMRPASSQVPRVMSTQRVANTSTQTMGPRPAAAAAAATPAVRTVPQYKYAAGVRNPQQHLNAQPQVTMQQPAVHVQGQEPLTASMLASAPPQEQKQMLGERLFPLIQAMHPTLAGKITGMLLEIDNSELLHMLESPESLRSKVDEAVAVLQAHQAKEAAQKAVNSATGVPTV

[17] = target: T3, Polyadenylate-binding protein 1; experiment: MLLE domain peptide-binding blockers, IC50 – biochemical, fluorescence polarization, FITC-PAM2 peptide, dose response (AID 602259); assay type: functional; conditions: read-out: IC50_Mean
[18] = test system: Vero; experiment: cells; assay type: functional; conditions: Chlorocebus sabaeus
[19] = target: Induced myeloid leukemia cell differentiation protein Mcl-1 (Homo sapiens, UniProt Q07820); assay type: functional
Sequence of Induced myeloid leukemia cell differentiation protein Mcl-1 (Q07820 whole entry): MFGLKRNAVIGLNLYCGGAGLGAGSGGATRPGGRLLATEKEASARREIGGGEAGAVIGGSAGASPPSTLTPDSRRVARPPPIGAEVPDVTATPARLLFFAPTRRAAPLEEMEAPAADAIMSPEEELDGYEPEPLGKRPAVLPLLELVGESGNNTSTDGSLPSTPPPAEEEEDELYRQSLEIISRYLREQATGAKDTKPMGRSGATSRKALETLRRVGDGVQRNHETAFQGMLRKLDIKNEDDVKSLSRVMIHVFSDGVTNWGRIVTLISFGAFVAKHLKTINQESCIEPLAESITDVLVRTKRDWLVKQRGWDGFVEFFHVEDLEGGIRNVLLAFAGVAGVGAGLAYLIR

[20] = target: T4, Protein RecA (Mycobacterium tuberculosis, UniProt P9WHJ3); experiment: Fluorescence Cell-Free Homogeneous Dose Retest to Identify Inhibitors of RecA-Intein Splicing Activity. [Related pubchem assays (depositor defined):AID2097, AID2223, AID489010, AID492950]; assay type: functional
T4 sequence (P9WHJ3 whole entry): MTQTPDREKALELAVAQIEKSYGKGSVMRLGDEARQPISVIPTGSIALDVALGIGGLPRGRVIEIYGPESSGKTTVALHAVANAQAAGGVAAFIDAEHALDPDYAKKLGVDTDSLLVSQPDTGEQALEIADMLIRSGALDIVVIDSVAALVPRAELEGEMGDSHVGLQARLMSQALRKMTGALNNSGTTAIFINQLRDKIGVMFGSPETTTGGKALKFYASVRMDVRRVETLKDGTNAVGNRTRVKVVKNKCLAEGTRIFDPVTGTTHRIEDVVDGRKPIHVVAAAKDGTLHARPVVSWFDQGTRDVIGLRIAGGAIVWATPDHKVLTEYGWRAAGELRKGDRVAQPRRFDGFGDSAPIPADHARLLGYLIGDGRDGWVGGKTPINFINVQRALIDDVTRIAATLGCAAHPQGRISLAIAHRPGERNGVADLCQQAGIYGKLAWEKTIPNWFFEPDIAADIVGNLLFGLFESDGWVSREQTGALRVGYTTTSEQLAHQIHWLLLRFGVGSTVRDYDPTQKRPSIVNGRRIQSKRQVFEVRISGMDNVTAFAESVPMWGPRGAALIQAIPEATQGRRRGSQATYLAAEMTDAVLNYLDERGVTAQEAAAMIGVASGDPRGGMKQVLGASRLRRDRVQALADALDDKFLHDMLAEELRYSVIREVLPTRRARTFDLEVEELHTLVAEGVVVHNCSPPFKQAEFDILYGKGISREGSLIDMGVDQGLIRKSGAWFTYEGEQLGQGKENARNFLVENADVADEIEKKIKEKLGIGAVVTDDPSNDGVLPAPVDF

[21] = target: T5, Replicative DNA helicase DnaB (Mycobacterium tuberculosis, UniProt P9WMR3); experiment: DnaB intein splicing inhibitors, dose response, biochemical, cell-free fluorescence (AID 449749); assay type: functional
T5 sequence (P9WMR3 whole entry): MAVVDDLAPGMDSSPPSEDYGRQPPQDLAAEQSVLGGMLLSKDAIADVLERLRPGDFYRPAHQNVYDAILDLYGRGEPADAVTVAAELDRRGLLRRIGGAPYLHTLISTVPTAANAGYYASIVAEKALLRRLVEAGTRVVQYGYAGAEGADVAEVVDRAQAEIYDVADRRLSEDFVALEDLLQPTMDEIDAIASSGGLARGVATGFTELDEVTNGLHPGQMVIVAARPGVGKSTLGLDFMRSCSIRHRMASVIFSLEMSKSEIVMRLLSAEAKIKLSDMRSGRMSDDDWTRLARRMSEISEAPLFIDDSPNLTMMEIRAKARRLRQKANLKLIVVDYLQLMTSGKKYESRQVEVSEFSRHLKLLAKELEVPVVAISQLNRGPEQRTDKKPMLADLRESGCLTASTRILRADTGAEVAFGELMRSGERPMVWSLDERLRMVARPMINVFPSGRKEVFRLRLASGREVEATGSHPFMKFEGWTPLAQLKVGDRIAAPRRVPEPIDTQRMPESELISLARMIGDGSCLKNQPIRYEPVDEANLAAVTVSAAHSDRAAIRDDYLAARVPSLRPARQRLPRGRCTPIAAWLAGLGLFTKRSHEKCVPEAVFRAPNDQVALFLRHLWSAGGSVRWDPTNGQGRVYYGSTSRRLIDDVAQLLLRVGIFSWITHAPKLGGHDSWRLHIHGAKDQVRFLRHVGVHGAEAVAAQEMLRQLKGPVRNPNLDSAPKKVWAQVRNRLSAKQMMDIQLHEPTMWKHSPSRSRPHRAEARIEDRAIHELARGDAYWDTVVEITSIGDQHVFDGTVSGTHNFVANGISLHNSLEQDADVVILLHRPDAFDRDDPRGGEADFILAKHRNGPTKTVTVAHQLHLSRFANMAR

NNc1nc(-c2ccccc2)cc(-c2ccccc2)n1
EC50 [1]: > 120 µM (not active) | IC50 [2]: 13 µM (active) | EC50 [3]: > 120 µM (not active) | EC50 [4]: > 120 µM (not active) | EC50 [5]: > 40 µM (inactive)

Cc1cccc(-c2nc3ccccc3c(=O)n2NC(=O)c2cccs2)c1
IC50 [6]: 44.1 µM (active)

NNC(=O)c1cccc(COc2ccc3c(c2)CCC3)c1
AC50 [7]: 2.12 µM (active)

CCc1nc2ccc(C(=O)N3CCN(C(=O)c4ccco4)CC3)cn2c1N(C)Cc1ccc(OC)cc1
AC50 [8]: 7.5 µM (active) | AC50 [9]: 10.4 µM (active) | AC50 [10]: 2.72 µM (active) | AC50 [11]: 13.5 µM (active)

COc1cc(/C=C/C(=O)O)cc(S(=O)(=O)Nc2ccc3nc(SC)sc3c2)c1OC
IC50 [6]: 66.4 µM (active)

OC1(c2cccc(C(F)(F)F)c2)CCN(c2[nH]cnc3c4cc(F)ccc4nc2-3)CC1
AC50 [12]: 1.87 µM (active) | AC50 [13]: 46 µM (active) | AC50 [14]: 6.11 µM (active) | AC50 [7]: 7.02 µM (active)

COc1ccc(NS(=O)(=O)c2ccc(N3CCCC3)c(NC(S)=Nc3ccc(SC(F)F)cc3)c2)cc1
AC50 [15]: 16.4 µM (active) | IC50 [16]: > 66 µM (inactive) | IC50 [17]: > 66 µM (inactive)

O=C(Nc1cc(Cl)cc(Cl)c1)C1CCC(=O)N1Cc1ccccc1Cl (stereo not given)
AC50 [8]: 19.3 µM (active) | AC50 [9]: 59.2 µM (active) | AC50 [10]: 7.12 µM (active) | AC50 [11]: 8.36 µM (active)

O=C(c1ccc2c(c1)OCO2)N(CC1CCCO1)C1(C(=O)NC2CCCCC2)CCCCC1 (stereo not given)
AC50 [8]: 4.79 µM (active) | AC50 [9]: 9.67 µM (active) | AC50 [10]: 5.73 µM (active) | AC50 [11]: 13 µM (active)

Cc1csc(N=Nc2ccc(N(C)C)cc2)[n+]1[O-]
AC50 [7]: 2.84 µM (active)

CC1CCN(c2ccc(-c3ccc(NC(=O)C(F)(F)F)cc3)nn2)CC1
AC50 [7]: 2.7 µM (active)

CCN(C[C@H]1N[C@@](C)(C(=O)OC)[C@H]2C(=O)N(Cc3ccccc3)C(=O)[C@@H]12)S(=O)(=O)c1ccc(C(C)(C)C)cc1
AC50 [8]: 5.16 µM (active) | AC50 [9]: 6.31 µM (active) | AC50 [10]: 5.72 µM (active) | AC50 [11]: 6.14 µM (active)

COc1cccc(/C=C2\SC(=S)N(CCC(=O)NCCc3ccc(O)cc3)C2=O)c1
AC50 [15]: 4.57 µM (active) | CC50 [18]: 16.1 µM (active)

Cc1ccc(/C=C/C(=O)NCc2ccccn2)o1
IC50 [19]: 6.32 µM (active)

COc1cc(/C=C2\SC(=S)N(CC(=O)Nc3ccc(O)cc3)C2=O)cc(OC)c1OC
IC50 [19]: 3.74 µM (active)

Cc1cccc(NC(=S)N/N=C2/CCCCc3ccccc32)c1
EC50 [20]: > 380 µM (inactive) | IC50 [2]: > 40 µM (not active) | AC50 [21]: 34 µM (active) | EC50 [5]: > 40 µM (inactive)

CCn1c(COc2ccc(Cl)cc2)nnc1SCc1nc2ccccc2[nH]1
AC50 [8]: 12 µM (active) | AC50 [9]: 23.5 µM (active) | AC50 [10]: 6.83 µM (active) | AC50 [11]: 5.17 µM (active)
